For seven compounds, logP results are on record in ChEMBL document CHEMBL1143022, “Free radical trapping properties of several ethyl-substituted derivatives of 5-ethoxycarbonyl-5-methyl-1-pyrroline N-oxide (EMPO)” (Bioorg Med Chem, 2007).

The nature of the data set: Partition coefficient, log P of the compound. The format is physicochemical. The conditions noted are these: octanol/water.

Each structure is given as a SMILES string.

What is called logP is a log measure of how a compound divides between an organic and an aqueous phase. Low values mean lower lipophilicity, high ones higher lipophilicity. Take `CCOC(=O)C1(CC)C(C)CC=[N+]1[O-]` (mixture of isomers): the log partition coefficient (logP) came to 1.07.

For `CCOC(=O)C1(C)C(CC)CC=[N+]1[O-]` (mixture of isomers), the logP amounted to 1.34.

For `CCOC(=O)[C@@]1(CC)C[C@H](C)C=[N+]1[O-]` (relative stereo), the logP was 1.48.

The compound `CCOC(=O)C1(C)CCC=[N+]1[O-]` (configuration not stated) had a logP of 0.15.

For the compound `CCOC(=O)[C@]1(C)C[C@@H](CC)C=[N+]1[O-]` (relative stereo), the logP was 1.67.

The compound `CCOC(=O)[C@]1(C)C[C@H](CC)C=[N+]1[O-]` (relative stereo) registered a logP of 1.38.

`CCOC(=O)[C@@]1(CC)C[C@@H](C)C=[N+]1[O-]` (relative stereo) showed a lipophilicity (logP) of 1.34.
